Results from patent US20170129916A1, “NOVEL BETULINIC PROLINE IMIDAZOLE DERIVATIVES AS HIV INHIBITORS” (HETERO RESEARCH FOUNDATION, priority 2014, published 2017).

What was measured:
[1] = test system: HIV-1 strains, for e.g., 92HT599; assay: Antiviral activity: p24 estimation in MT-2 cells infected with HIV-1; format: cell-based; conditions: Human immunodeficiency virus 1, MT2, MT-2 cells infected with HIV-1, p24, ~96 hours; for IC50: read-out: Antiviral activity IC50 (nM) Efficacy IC50
Procedure, shortened: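 MT-2 cells infected with HIV-1 (e.g. 92HT599), plated at 30,000 cells/well with compound (DMSO ≤1%) and incubated ~96 h. Supernatant p24 quantified by kit; percent inhibition relative to vehicle controls.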

[2] = in vitro
Protocol: On day 1 calculate the number of cells required for the assay and seed 3×10^4 cells in 200 μl per well. Weigh the compound and dissolve it in DMSO to get 10 mM stock which is further diluted to 3 mM and 1 mM. The drugs from these stocks were added to plate to get final concentration of 100 μM, 30 μM and 10 μM. […] Incubate for 4 days in 5% CO2 incubator at 37° C. On day 4, 100 μl of medium was removed from each well without disturbing the cells. Add 10 μl of MTT reagent and incubate for 4 hours at 5% CO2 incubator at 37° C. for formation of crystals. Add 200 μl of 0.1N acidic isopropanol to dissolve the crystals and read the plate at 590 nm.

[3] = Single dose oral pharmacokinetic study; format: in vivo; conditions: mouse, mice, 30 mg/kg, plasma; for AUC(0-t): read-out: Mice oral PK @30 mg/kg AUC 0-t; for Cmax: read-out: Mice oral PK @30 mg/kg Cmax
Procedure, shortened: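 Rats or mice received 30 mg/kg orally at 10 ml/kg dose volume. Retro-orbital blood was taken into K3 EDTA at defined intervals under light ether anesthesia and centrifuged to plasma. Plasma levels were measured by LC-MS-MS.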

| Structure (SMILES) | inhibition at 0.1 µM [1] | inhibition at 1 µM [1] | viability at 4 days, 10 μM [2] | viability at 4 days, 30 μM [2] | viability at 4 days, 100 μM [2] | IC50 [1] | AUC(0-t) [3] | Cmax [3] |
| --- | --- | --- | --- | --- | --- | --- | --- | --- |
| C=C(C)[C@@H]1CC[C@]2(C(=O)N3CCC[C@H]3c3ncc(-c4ccc(C)c(F)c4)[nH]3)CC[C@]3(C)[C@H](CC[C@@H]4[C@@]5(C)CC[C@H](OC(=O)[C@H]6C[C@@H](C(=O)O)C6(C)C)C(C)(C)[C@@H]5CC[C@]43C)[C@@H]12 [Compound 2, (1R,3S)-3-((((1R,3aS,5aR,5 bR,7aR,9S,11aR,11bR,13aR,13bR)-3a-((S)-2-(5-(3-fluoro-4-methylphenyl)-1H-imidazol-2-yl)pyrrolidine-1-carbonyl)-5a,5b,8,8,11a-pentamethyl-1-(prop-1-en-2-yl)icosahydro-1H-cyclopenta[a]chrysen-9-yl)oxy)carbonyl)-2,2-dimethylcyclobutane-1-carboxylic acid] | 0% | 97% | 64% | 31% | 5% |  |  |  |
| CC(C)(C)c1c[nH]c([C@@H]2CCCN2C(=O)[C@]23CC[C@@H](C4(C)CC4)[C@@H]2[C@H]2CC[C@@H]4[C@@]5(C)CC[C@H](OC(=O)[C@H]6C[C@@H](C(=O)O)C6(C)C)C(C)(C)[C@@H]5CC[C@@]4(C)[C@]2(C)CC3)n1 [Compound 56, (1R,3S)-3-((((1R,3aS,5aR,5bR,7aR,9S,11aR,11bR,13aR,13bR)-3a-((S)-2-(4-(tert-butyl)-1H-imidazol-2-yl)pyrrolidine-1-carbonyl)-5a,5b,8,8,11a-pentamethyl-1-(1-methylcyclopropyl)icosahydro-1H-cyclopenta[a]chrysen-9-yl)oxy)carbonyl)-2,2-dimethylcyclobutane-1-carboxylic acid] |  |  |  |  |  | 56.2 nM | 375 µg·h/mL | 12000 ng/mL |
| CC1([C@@H]2CC[C@]3(C(=O)N4CCC(c5ncc(-c6ccccc6)[nH]5)CC4)CC[C@]4(C)[C@H](CC[C@@H]5[C@@]6(C)CC[C@H](OC(=O)[C@H]7C[C@@H](C(=O)O)C7(C)C)C(C)(C)[C@@H]6CC[C@]54C)[C@@H]23)CC1 [Compound 57, (1R,3S)-2,2-dimethyl-3-((((1R,3aS,5aR,5bR,7aR,9S,11aR,11bR,13aR,13bR)-5a,5b,8,8,11a-pentamethyl-1-(1-methylcyclopropyl)-3a-(4-(5-phenyl-1H-imidazol-2-yl)piperidine-1-carbonyl)icosahydro-1H-cyclopenta[a]chrysen-9-yl)oxy)carbonyl)cyclobutane-1-carboxylic acid] |  |  |  |  |  | 4.42 nM | 66.4 µg·h/mL | 2790 ng/mL |
| CC1([C@@H]2CC[C@]3(C(=O)N4CCC[C@H]4c4ncc(C(F)(F)F)[nH]4)CC[C@]4(C)[C@H](CC[C@@H]5[C@@]6(C)CC[C@H](OC(=O)[C@H]7C[C@@H](C(=O)O)C7(C)C)C(C)(C)[C@@H]6CC[C@]54C)[C@@H]23)CC1 [Compound 59, (1R,3S)-2,2-dimethyl-3-((((1R,3aS,5aR,5bR,7aR,9S,11aR,11bR,13aR,13bR)-5a,5b,8,8,11a-pentamethyl-1-(1-methylcyclopropyl)-3a-((S)-2-(5-(trifluoromethyl)-1H-imidazol-2-yl)pyrrolidine-1-carbonyl)icosahydro-1H-cyclopenta[a]chrysen-9-yl)oxy)carbonyl)cyclobutane-1-carboxylic acid] | 71% | 100% |  |  |  | 55.4 nM | 451 µg·h/mL | 15700 ng/mL |
| CC(C)(CC(=O)O[C@H]1CC[C@]2(C)[C@H]3CC[C@@H]4[C@H]5[C@H](C6(C)CC6)CC[C@]5(C(=O)N5CCC[C@H]5c5ncc(-c6ccccn6)[nH]5)CC[C@@]4(C)[C@]3(C)CC[C@H]2C1(C)C)C(=O)O [Compound 62, 2,2-dimethyl-4-oxo-4-(((1R,3aS,5aR,5bR,7aR,9S,11aR,11bR,13aR,13bR)-5a,5b,8,8,11a-pentamethyl-1-(1-methylcyclopropyl)-3a-((S)-2-(5-(pyridin-2-yl)-1H-imidazol-2-yl)pyrrolidine-1-carbonyl)icosahydro-1H-cyclopenta[a]chrysen-9-yl)oxy)butanoic acid] |  |  |  |  |  | 0.8 nM | 93.1 µg·h/mL | 7120 ng/mL |
| CC(C)(CC(=O)O)CC(=O)O[C@H]1CC[C@]2(C)[C@H]3CC[C@@H]4[C@H]5[C@H](C6(C)CC6)CC[C@]5(C(=O)N5CCC[C@H]5c5ncc(-c6ccccn6)[nH]5)CC[C@@]4(C)[C@]3(C)CC[C@H]2C1(C)C [Compound 63, 3,3-dimethyl-5-oxo-5-(((1R,3aS,5aR,5bR,7aR,9S,11aR,11bR,13aR,13bR)-5a,5b,8,8,11a-pentamethyl-1-(1-methylcyclopropyl)-3a-((S)-2-(5-(pyridin-2-yl)-1H-imidazol-2-yl)pyrrolidine-1-carbonyl)icosahydro-1H-cyclopenta[a]chrysen-9-yl)oxy)pentanoic acid] |  |  |  |  |  | 3.6 nM | 120 µg·h/mL | 4470 ng/mL |
| CC(C)(CC(=O)O)CC(=O)O[C@H]1CC[C@]2(C)[C@H]3CC[C@@H]4[C@H]5[C@H](C6(C)CC6)CC[C@]5(C(=O)N5CCC[C@H]5c5ncc(-c6cccc(F)c6)[nH]5)CC[C@@]4(C)[C@]3(C)CC[C@H]2C1(C)C [Compound 64, 5-(((1R,3aS,5aR,5bR,7aR,9S,11aR,11bR,13aR,13bR)-3a-((S)-2-(5-(3-fluorophenyl)-1H-imidazol-2-yl)pyrrolidine-1-carbonyl)-5a,5b,8,8,11a-pentamethyl-1-(1-methylcyclopropyl)icosahydro-1H-cyclopenta[a]chrysen-9-yl)oxy)-3,3-dimethyl-5-oxopentanoic acid] |  |  |  |  |  | 14.6 nM | 105 µg·h/mL | 5250 ng/mL |
| CC(C)(CC(=O)O[C@H]1CC[C@]2(C)[C@H]3CC[C@@H]4[C@H]5[C@H](C6(C)CC6)CC[C@]5(C(=O)N5CCC[C@H]5c5ncc(-c6cccc(F)c6)[nH]5)CC[C@@]4(C)[C@]3(C)CC[C@H]2C1(C)C)C(=O)O [Compound 65, 4-(((1R,3aS,5aR,5bR,7aR,9S,11aR,11bR,13aR,13bR)-3a-((S)-2-(5-(3-fluorophenyl)-1H-imidazol-2-yl)pyrrolidine-1-carbonyl)-5a,5b,8,8,11a-pentamethyl-1-(1-methylcyclopropyl)icosahydro-1H-cyclopenta[a]chrysen-9-yl)oxy)-2,2-dimethyl-4-oxobutanoic acid] |  |  |  |  |  | 15.7 nM | 203 µg·h/mL | 13300 ng/mL |
| COCCOc1ccc(-c2cnc([C@@H]3CCCN3C(=O)[C@]34CC[C@@H](C5(C)CC5)[C@@H]3[C@H]3CC[C@@H]5[C@@]6(C)CC[C@H](OC(=O)CC(C)(C)C(=O)O)C(C)(C)[C@@H]6CC[C@@]5(C)[C@]3(C)CC4)[nH]2)cc1 [Compound 66] |  |  |  |  |  | 0.73 nM | 62.1 µg·h/mL | 6590 ng/mL |
| COCCO[C@@H]1C[C@@H](c2nc(-c3ccc(F)cc3)c[nH]2)N(C(=O)[C@]23CC[C@@H](C4(C)CC4)[C@@H]2[C@H]2CC[C@@H]4[C@@]5(C)CC[C@H](OC(=O)CC(C)(C)C(=O)O)C(C)(C)[C@@H]5CC[C@@]4(C)[C@]2(C)CC3)C1 [Compound 67, 4-(((1R,3aS,5aR,5bR,7aR,9S,11aR,11bR,13aR,13bR)-3a-((2S,4R)-2-(4-(4-fluorophenyl)-1H-imidazol-2-yl)-4-(2-methoxyethoxy)pyrrolidine-1-carbonyl)-5a,5b,8,8,11a-pentamethyl-1-(1-methylcyclopropyl)icosahydro-1H-cyclopenta[a]chrysen-9-yl)oxy)-2,2-dimethyl-4-oxobutanoic acid] |  |  |  |  |  | 0.44 nM | 247 µg·h/mL | 12300 ng/mL |
| CC(C)(CC(=O)O[C@H]1CC[C@]2(C)[C@H]3CC[C@@H]4[C@H]5[C@H](C6(C)CC6)CC[C@]5(C(=O)N5CCC(c6ncc(-c7ccccc7)[nH]6)CC5)CC[C@@]4(C)[C@]3(C)CC[C@H]2C1(C)C)C(=O)O [Compound 68, 2,2-dimethyl-4-oxo-4-(((1R,3aS,5aR,5bR,7aR,9S,11aR,11bR,13aR,13bR)-5a,5b,8,8,11a-pentamethyl-1-(1-methylcyclopropyl)-3a-(4-(5-phenyl-1H-imidazol-2-yl)piperidine-1-carbonyl)icosahydro-1H-cyclopenta[a]chrysen-9-yl)oxy)butanoic acid] |  |  |  |  |  | 12.8 nM | 23.5 µg·h/mL | 2020 ng/mL |
| CC(C)(CC(=O)O)CC(=O)O[C@H]1CC[C@]2(C)[C@H]3CC[C@@H]4[C@H]5[C@H](C6(C)CC6)CC[C@]5(C(=O)N5CCC[C@H]5c5ncc(-c6ccc(F)cc6)[nH]5)CC[C@@]4(C)[C@]3(C)CC[C@H]2C1(C)C [Compound 70, 5-(((1R,3aS,5aR,5bR,7aR,9S,11aR,11bR,13aR,13bR)-3a-((S)-2-(5-(4-fluorophenyl)-1H-imidazol-2-yl)pyrrolidine-1-carbonyl)-5a,5b,8,8,11a-pentamethyl-1-(1-methylcyclopropyl)icosahydro-1H-cyclopenta[a]chrysen-9-yl)oxy)-3,3-dimethyl-5-oxopentanoic acid] | 84% | 99% |  |  |  |  | 172 µg·h/mL | 10000 ng/mL |
